Reference: patent US20250287930A1, “REGULATION OF IMMUNE RESPONSES THROUGH SELECTIVE NEURAL ACTIVATION” (The Trustees of Columbia University in the City of New York, priority 2024, published 2025)

Tests used:
[1] = system: cNST neurons; experiment: Fos induction in the cNST after intraperitoneal immune stimulation; format: in vivo, mice; conditions: for Fos induction in the cNST: intraperitoneal injection, brains taken 2 h later
Protocol: (§1) Mice housed in their home cages were injected intraperitoneally with lipopolysaccharide (LPS, 50 μg kg-1, Cell Signaling Technology, #14011), lipoteichoic acid (LTA, 1 mg kg-1 Sigma, #L2512), Flagellin (20 μg kg-1, Sigma Aldrich #SRP8029), Profilin (20 μg kg-1, Sigma Aldrich, #SRP8050), Zymosan (2.5 mg kg-1, Sigma Aldrich #Z4250), IL-10 (100 μg kg-1, BioLegend, #575804), a cocktail of IL-6 (100 μg kg-1, BioLegend #575706), IL-1β (100 μg kg-1, R&D, #401-ML) and TNF-α (100 μg kg-1, R&D, #410-MT), or saline control (0.9% NaCl), then 2 h later, perfused transcardially with PBS followed by 4% paraformaldehyde. Brains were dissected, fixed in 4% PFA overnight at 4° C., and then sliced coronally at 100 μm thickness. The brain sections were permeabilized and blocked with 10% normal donkey serum (EMD Millipore, #S30) in PBS containing 0.3% Triton X-100. Sections were incubated with an anti-Fos primary antibody (SYSY, #226004 guinea pig, diluted 1:5,000) at 4° C. overnight, followed by labeling with a secondary antibody (Alexa Fluor 647-conjugated donkey anti-guinea pig, Jackson ImmunoResearch, #706605148) at room temperature for 2 h. For double RNA in situ hybridization, fixed frozen nodose ganglia or brains were sectioned at 16 μm thickness and processed for mRNA detection using the RNAscope Fluorescent Multiplex Kit (Advanced Cell Diagnostics) following the manufacturer's instructions. The following RNAscope probes were used: Fos (#316921-C2), Dbh (#464621-C1), Trpa1 (#400211-C3) and Calca (#578771-C2), GFP (#400281-C1). Images were acquired using an Olympus FluoView 1000 confocal microscope. Quantification of fluorescent signals was carried out by manually counting the number of positive neurons.

[2] = system: DBH neurons in the cNST; experiment: Fos induction in DBH neurons in the cNST by LPS and cytokine stimulation; format: in vivo; conditions: Dbh-cre mice, intraperitoneal injection
Protocol: as §1, with “For double RNA in situ hybridization, fixed frozen nodose ganglia or brains were sectioned at 16 μm thickness and processed for mRNA detection using the RNAscope Fluorescent Multiplex Kit (Advanced Cell Diagnostics) following the manufacturer's instructions. The following RNAscope probes were used: Fos (#316921-C2), Dbh (#464621-C1), Trpa1 (#400211-C3) and Calca (#578771-C2), GFP (#400281-C1). Images were acquired using an Olympus FluoView 1000 confocal microscope.” left out

[3] = system: cNST neurons; experiment: Fiber photometry of LPS-evoked activity in the cNST (GCaMP6s, Vglut2-cre mice); format: in vivo
Protocol: (§2) All stereotaxic surgery procedures were carried out using aseptic technique. […] The viral constructs were injected into the cNST through a small craniotomy. The injection coordinates (based on Paxinos stereotaxic coordinates) for virus delivery in the cNST were as follows: caudal 7.5 mm, lateral ±0.3 mm, ventral 3.7-4 mm, all relative to Bregma. In chemogenetic experiments, TRAP2, Dbh-cre, Vglut2-cre and Vgat-cre mice received bilateral injections of 200 nl of AAV9-Syn-DIO-hM3Dq (Addgene, #44361-AAV9) and 300 nl of AAV9-Syn-DIO-hM4Di (Addgene, #44362-AAV9) in the cNST. Equivalent volumes of AAV9-Syn-DIO-mCherry (Addgene, #50459-AAV9) were injected as controls. For fiber photometry experiments, Vglut2-cre mice were unilaterally injected with 100 nl of AAV9-Syn-Flex-GCaMP6s (Addgene, #100845-AAV9) in the cNST, and an optical fiber (400 μm core, 0.48 NA, Doric Lenses) was implanted 50-100 μm above the GCaMP virus injection site.
Photometry experiments were conducted at least 14 days after the stereotaxic viral injection and fiber implantation (see the section on stereotaxic surgery for details). Prior to the experiments, mice were acclimated to the recording chamber for 1 h per day over 3 consecutive days. On the 4th and 5th day, mice were recorded for the bulk GCaMP responses to saline and LPS (0.5 mg kg-1), respectively, in a 5 h recording session. Saline and LPS were intraperitoneally injected 15 min after the onset of recording. Real-time population-level GCaMP fluorescence signals were detected, amplified and recorded using a RZ5P fiber photometry system with Synapse software (Tucker Davis Technologies). The collected data were downsampled, detrended and smoothed by custom MATLAB code. The calcium transients were identified as described previously (Barretto, R. P. et al. Nature 517, 373-376, (2015); Rousseeuw, P. J. C., C. J. Am. Stat. Assoc. 88, 1273-1283, (1993); Jin, H., Fishman, Z. H., Ye, M., Wang, L. & Zuker, C. S. Cell 184, 257-271 e216, (2021)) and the area under the curve (AUC) was calculated by integrating fluorescence signal under identified calcium transients. […]

[4] = system: circulating cytokines; experiment: LPS-induced circulating cytokines in peripheral blood by ELISA; format: in vivo, mice
Protocol: When using TRAP2 animals, at least 4 weeks elapsed between TRAPing and CNO treatment. Two doses (2 mg kg-1 and 1 mg kg-1) of CNO were given intraperitoneally at 12 h and 1 h prior to saline or LPS stimulation. Two hours after the intraperitoneal injection of saline or LPS (0.1 mg kg-1), blood samples were collected from either the submandibular or the tail vein. Cytokines in the blood were measured using commercially available ELISA kits (R&D), following manufacturer's instructions. Saline and LPS experiments were conducted on the same cohort of mice but at least 7 days apart.
To examine LPS-induced cytokine responses over time, wild-type (C56BL/6J) mice were injected IP with saline or LPS, and peripheral blood samples were collected at 0, 2 hours, 4 hours, and 6 hours post-stimulation.

[5] = system: vagal sensory neurons; experiment: Vagal calcium imaging of nodose ganglion (GCaMP6s in all vagal sensory neurons); format: in vivo, mice; conditions: for calcium activity in a subset of vagal sensory neurons: intraperitoneal cytokine, nodose ganglion; for number of responding vagal sensory neurons: of 423 imaged vagal sensory neurons, cytokine intraperitoneal
Protocol: (§3) Calcium imaging of the nodose ganglion was conducted as described previously (Li, M. et al. Nature 610, 722-730, (2022); Tan, H. E. et al. Nature 580, 511-516, (2020)). For imaging in response to intragastric delivery of glucose (or linoleic acid), and IP injections of saline control and cytokines, a typical recording session consisted of: 1st: saline; 2nd: one of the three pro-inflammatory cytokines (TNF-α, IL-1β or IL-6); 3rd: anti-inflammatory cytokine (IL-10); 4th and 5th: two trials with glucose (or linoleic acid); each trial was 5 min. Cytokines were injected 1 min after the onset of the recording. Glucose (500 mM) and linoleic acid (10%) was delivered intragastrically. For all experiments 100 μg kg-1 of each cytokine was used. To deliver cytokines […], a segment of the intestine was placed in a custom-made perfusion chamber while still keeping it connected to the remainder of the gastrointestinal tract (no carbogenation). Each recording session included six interleaved trials, with 2 trials for each stimulus. Trials were 15 mins long, and consisted of a 180-s baseline (saline), a 180-s cytokine or control stimulus, and a 9-min washout (saline) period. The flow rates were maintained at around 600 μl min-1 throughout the experiment to minimize mechanical responses that may occur during the transition between trials. Cytokines were dissolved in saline at the concentration of 1 μg ml-1. During the entire perfusion session, all of the solutions were maintained at 37° C.
Imaging data was acquired exactly as previously described (Li, M. et al. Nature 610, 722-730, (2022); Tan, H. E. et al. Nature 580, 511-516, (2020)). Neuronal activity was analyzed for significant stimulus-evoked responses as described. The baseline distribution of deviations was first computed from the median for each cell throughout the entire experiment using periods prior to the stimulus delivery. Subsequently, this baseline was utilized to derive a modified z-score by subtracting the median and dividing by the median absolute deviation. Trials with an average modified z-score above 1.6 for the 180s (stimuli delivered via IP) or 480s (stimuli delivered via perfusion) following the initiation of stimulation were classified as responding trials (all responders had minimal peak amplitudes of 1% ΔF/F). Z-scores from responders were normalized across stimuli to generate heat maps of normalized fluorescence traces.

[6] = system: LPS-activated neurons in the cNST; experiment: Chemogenetic inhibition of LPS-TRAPed cNST neurons, LPS-evoked cytokines; format: in vivo, mice; set-up: unit not given here; conditions: LPS-treated but not silenced animals
Protocol: as §2
(§4) The TRAP strategy was used in TRAP2 mice to gain genetic access to LPS-activated neurons in the cNST. […]
(§5) When using TRAP2 animals, at least 4 weeks elapsed between TRAPing and CNO treatment. […] Cytokines in the blood were measured using commercially available ELISA kits (R&D), following manufacturer's instructions. […]

[7] = system: LPS-activated neurons in the cNST; experiment: Chemogenetic activation of LPS-TRAPed cNST neurons, cytokines; format: in vivo, mice
Protocol: as §2, §4, §5

[8] = system: TRPA1 vagal neurons; experiment: Calcium imaging of TRPA1 vagal neurons; format: in vivo, mice
Protocol: as §3, with “Trials were 15 mins long, and consisted of a 180-s baseline (saline), a 180-s cytokine or control stimulus, and a 9-min washout (saline) period. The flow rates were maintained at around 600 μl min-1 throughout the experiment to minimize mechanical responses that may occur during the transition between trials. Cytokines were dissolved in saline at the concentration of 1 μg ml-1. During the entire perfusion session, all of the solutions were maintained at 37° C.” left out
Imaging data was acquired exactly as previously described (Li, M. et al. Nature 610, 722-730, (2022); Tan, H. E. et al. Nature 580, 511-516, (2020)). Neuronal activity was analyzed for significant stimulus-evoked responses as described. […] Z-scores from responders were normalized across stimuli to generate heat maps of normalized fluorescence traces.

## lipoteichoic acid [LTA]
[1]
  Fos induction in the cNST: robustly activated Fos

## Flagellin
[1]
  Fos induction in the cNST: robustly activated Fos

## lipopolysaccharide [LPS]
[1]; Myd88−/− mice, LPS intraperitoneally, 2 h
  Fos expression in the cNST of Myd88−/− mice: largely absent
[1]
  Fos induction in the cNST: robustly activated Fos
[2]
  activation (Fos) of DBH neurons in the cNST: activate DBH neurons
[3]; LPS 0.5 mg kg-1
  reduction of average cNST response after vagotomy: ~80%
[3]; LPS 0.5 mg kg-1, after bilateral vagotomy
  cNST GCaMP6s response, AUC (area under the curve): 10.6±6.1
[3]; LPS 0.5 mg kg-1, intact vagus
  cNST GCaMP6s response, AUC (area under the curve): 52.6±7.2
[4]; IL-6, IL-1β, TNF-α, IL-10, 2 h after LPS
  cytokine induction in Myd88−/− mice: dramatically reduced
[4]; control animals given LPS
  TNFa in the peripheral blood: 200 pg/mL
[5]; LPS 0.5 mg kg-1
  direct activation of vagal neurons: not directly activated
[6]
  IL-1β level: 200
  IL-10 level: 750

## Profilin
[1]
  Fos induction in the cNST: robustly activated Fos

## C[N+]1([O-])CCN(C2=Nc3cc(Cl)ccc3Nc3ccccc32)CC1 [CNO, clozapine N-oxide]
[7]
  anti-inflammatory cytokines (IL-10), change on activation: very large increase
  pro-inflammatory cytokines, change on activation: dramatic suppression

## tumor necrosis factor [TNF-α]
[5]
  calcium activity in a subset of vagal sensory neurons: triggered robust activity
  number of responding vagal sensory neurons: 13

## IL-1β: pro-inflammatory cytokine
[5]
  number of responding vagal sensory neurons: 8

B1: interleukin-10 (protein, UniProt P22301 19-178, looked up)
Interleukin-10: SPGQGTQSENSCTHFPGNLPNMLRDLRDAFSRVKTFFQMKDQLDNLLLKESLLEDFKGYLGCQALSEMIQFYLEEVMPQAENQDPDIKAHVNSLGENLKTLRLRLRRCHRFLPCENKSKAVEQVKNAFNKLQEKGIYKAMSEFDIFINYIEAYMTMKIRN
notes: anti-inflammatory cytokine
[1]
  Fos induction in the cNST: induces significant Fos labelling
[2]
  activation (Fos) of DBH neurons in the cNST: activate DBH neurons
[5]
  number of responding vagal sensory neurons: 11/423
[8]; GCaMP6s imaging
  activation of TRPA1-expressing vagal neurons: activated
[8]; imaged TRPA1 neurons, IP or perfusion
  number of responding TRPA1 neurons: 27 of 189

B2: interleukin-4 (protein, UniProt P05112 25-153, looked up)
Interleukin-4: HKCDITLQEIIKTLNSLTEQKTLCTELTVTDIFAASKNTTEKETFCRAATVLRQFYSHHEKDTRCLGATAQQFHRHKQLIRFLKRLDRNLWGLAGLNSCPVKEANQSTLENFLERLKTIMREKYSKCSS
notes: anti-inflammatory cytokine
[5]
  calcium activity in a subset of vagal sensory neurons: triggered robust activity
